Broadly, the IC50 is the concentration that inhibits the measured activity by half. Lower therefore signals greater potency.

This note sets out measurements from patent US20250222009A1, “DINUCLEAR GOLD(I) COMPLEXES FOR TREATING CANCER” (KING FAHD UNIVERSITY OF PETROLEUM AND MINERALS, priority 2024, published 2025).

For one assay, the system named is BAX. Kind of assay: BAX expression, flow cytometry. Type of assay: cell-based, human. The note with it: A549, 72 h. On the procedure: (§1) 2.0×10^5 A549 cells were seeded in 6-well plates in a complete medium and treated with the complex 3. Assay results were detected by flow cytometry on a BD FACSCanto II flow cytometer. Data were analyzed using BD FACSDiva v.8.0.1 software (BD Biosciences) unless otherwise indicated. Tumor cells were treated for 72 h with complex 3, then stained for 15 minutes with FITC Annexin-V (Thermo Fisher Scientific) and 7AAD (BD Pharmingen, Milan, Italy). Activated caspase-3,7 was detected using the CaspaTag Caspase-3,7 assay (Merck Millipore) after an incubation of 24 h with complex 3. For B-cell lymphoma/leukemia-2 protein (Bcl-2) and Bcl-2 associated x protein (Bax) analysis, cells were treated for 72 h with C3, then fixed and permeabilized (FIX & PERM Cell Fixation & Cell Permeabilization Kit, Life Technologies). […] The distribution of cells in different cell cycle phases was quantified using ModFit LT 4.0 software (Verity Software House, Topsham, ME, USA) (See: Sulaiman, A. A. A.; Casagrande, N.; Borghese, C.; Corona, G.; Isab, A. A.; Ahmad, S.; Aldinucci, D.; Altaf M. Design, Synthesis, and Preclinical Activity in Ovarian Cancer Models of New Phosphanegold(I)—N-Heterocyclic Carbene Complexes. J Med Chem 2022, 65, 14424-14440, which is incorporated herein by reference in its entirety). […]
(In general: In flow cytometry, cells or beads pass a laser one at a time.)

Assay [1] has as its system PC3 (androgen-resistant prostate cancer). Kind of assay: MTT cytotoxicity assay, PC3. The assay is classed as cell-based. The note with it: 72 h, mean (SD). On the procedure: (§2) The human epithelial ovarian cancer A2780 cell line and its cisplatin-resistant clone A2780cis were obtained from Sigma-Aldrich (Milano, Italy). A2780cis cells were continuously exposed to 1 μM cisplatin to maintain cisplatin resistance. A549 cells (Human non-small cell lung cancer), MCF7 (metastatic breast cancer), PC3 (highly aggressive metastatic prostate cancer), and MG63 (osteosarcoma) were obtained from the American Type Culture Collection (ATCC). Cells were authenticated in laboratory using the PowerPlex 16 HS System. A2780, A2780cis, and PC3 cells were cultured in RPMI-1640 medium; MG63 and MCF7 cells were cultured in DMEM, and A549 cells were cultured in F12 NUT-MIX. The culture medium contained about 10% fetal bovine serum (FBS) (Gibco, Thermo Fisher Scientific, Monza, Italy), about 1% (v/v) of penicillin (10,000 units/mL)-streptomycin (10 mg/mL), and about 1% (v/v) L-glutamine (200 mM) (all from Sigma-Aldrich). Cells were cultured at 37° C. in a 5% CO2, fully humidified atmosphere.
(§3) 2.5×10^3 (PC3, MG63, MCF7) or 4.0×10^3 (A2780, A2780cis, A549) cells were seeded in 96-well microplates in 100 μL culture medium. Cells, allowed to adhere for 24 h, were then treated in triplicate with increasing concentrations of gold compounds. Cisplatin was included as a reference drug. Cell viability was evaluated using 3-(4,5-dimethylthiazol-2-yl)-2,5-diphenyltetrazolium bromide (MTT) assay (Sigma-Aldrich) after 72 h of treatment. Half maximal inhibitory concentrations (IC50), IC25, and IC75 were calculated using the CalcuSyn software version 2 (Biosoft, Ferguson, MO, USA) (See: Chou, T. C.; Talalay, P. Quantitative Analysis of Dose-Effect Relationships: The Combined Effects of Multiple Drugs or Enzyme Inhibitors. Adv. Enzyme Regul. 1984, 22, 27-55, which is incorporated herein by reference in its entirety). Fold resistance was calculated as the ratio of the IC50 of the A2780cis to that of the parental cell line A2780. Alternatively, cell viability was assayed by crystal violet staining (See: Feoktistova, M.; Geserick, P.; Leverkus, M. Crystal Violet Assay for Determining Viability of Cultured Cells. Cold Spring Harb Protoc 2016, 2016, pdb.prot087379, which is incorporated herein by reference in its entirety). Alternatively, after drug treatment, the culture Medium was removed, cells washed, fixed, and stained, and the Crystal Violet solution lasted 20 minutes (See: Sulaiman, A. A. A.; Casagrande, N.; Borghese, C.; Corona, G.; Isab, A. A.; Ahmad, S.; Aldinucci, D.; Altaf M. Design, Synthesis, and Preclinical Activity in Ovarian Cancer Models of New Phosphanegold(I)—N-Heterocyclic Carbene Complexes. J Med Chem 2022, 65, 14424-14440, which is incorporated herein by reference in its entirety).
A general note: Tetrazolium dyes change colour on reduction, which living cells bring about.

Another assay deals with caspase-3,7. Kind of assay: Caspase-3,7 activation (CaspaTag/FLICA), flow cytometry. The following applies: A549, 24 h. The assay is classed as cell-based, human. As to the method:
as §1

The test system of assay [2] is A2780cis (cisplatin-resistant clone of A2780). Kind of assay: MTT cytotoxicity assay, A2780cis. The assay is classed as cell-based, human. As to the method: as §2, §3
The next assay concerns TrxR. The assay is described as follows: Thioredoxin reductase activity in treated cell lysates. The assay is classed as cell-based, human. The following applies: A549 cells treated 24 h. On the procedure:
Cells were treated with complex 3 (24 h) and then lysed in 50 mM Tris-HCl pH 7.6, 0.1% Triton X-100, 0.9% NaCl to obtain the TrxR activity. TrxR (EC 1.8.1.9) was assayed using the Thioredoxin Reductase Assay Kit (Sigma-Aldrich). Enzyme activity was determined by reading the absorbance at 412 nm using a spectrophotometer (Biomate 3 Thermo Spectronic, Thermo Electronic Corporation, Monza, Italy) and normalized to the protein concentration, determined with the Bio-Rad protein assay (Protein Assay Dye Reagent Concentrate, Bio-Rad Laboratories, Segrate, Italy).

Assay [3] relates to A2780 ovarian cancer cells. Kind of assay: MTT cytotoxicity assay, A2780. The note with it: 72 h, mean (SD). The assay is classed as cell-based, human. As to the method:
as §2, §3

The next assay has as its system A549 cells. The assay is described as follows: Crystal violet staining cell viability. The following applies: A549, 72 h. The assay is classed as cell-based, human. As to the method: as §3, with “Alternatively, after drug treatment, the culture Medium was removed, cells washed, fixed, and stained, and the Crystal Violet solution lasted 20 minutes (See: Sulaiman, A. A. A.; Casagrande, N.; Borghese, C.; Corona, G.; Isab, A. A.; Ahmad, S.; Aldinucci, D.; Altaf M. Design, Synthesis, and Preclinical Activity in Ovarian Cancer Models of New Phosphanegold(I)—N-Heterocyclic Carbene Complexes. J Med Chem 2022, 65, 14424-14440, which is incorporated herein by reference in its entirety).” left out

Regarding `CC(C)c1cccc(C(C)C)c1-n1ccn(-c2c(C(C)C)cccc2C(C)C)[c]1=[Au-][P+](CCNCC[P+]([Au-]=[c]1n(-c2c(C(C)C)cccc2C(C)C)ccn1-c1c(C(C)C)cccc1C(C)C)(C1CCCCC1)C1CCCCC1)(C1CCCCC1)C1CCCCC1` [Complex 3, [(Au(IPr))2(C28H24P2)](PF6)2], the “pro-apoptotic BAX expression” value in the assay with BAX is given as “induced”. Also, the IC50 was 240 nM in assay [1]; 240 nM in assay [2] (MTT, 72 h, mean, SD in next cell); 110 nM in assay [3]. Further, in the assay with caspase-3,7, the “caspase-3,7 activation” value is listed as “activated”. In assay [2] (IC50 A2780cis/IC50 A2780), the “Fold resistance (A2780cis/A2780)” value was 2.19. The TrxR enzymatic activity entry with TrxR was “not modified”. Besides, the “growth inhibition by crystal violet staining” value in the assay with A549 cells is on record as “growth inhibition”.
